Consider 10 molecules from US9540371B2, “Substituted quinazolin-4(3H)-ones, pyrido[3,4-d]pyrimidin-4(3H)-ones, pyrido[3,2-d]pyrimidin-4(3H)-ones and pyrido[2,3-d]pyrimidin-4(3H)-ones as positive allosteric modulators of muscarinic acetycholine receptor M1” (Vanderbilt University, priority 2013, dated 2017).

The target in this assay is T1, mAChR M1 (UniProt P11229).
T1 sequence (P11229 1-460): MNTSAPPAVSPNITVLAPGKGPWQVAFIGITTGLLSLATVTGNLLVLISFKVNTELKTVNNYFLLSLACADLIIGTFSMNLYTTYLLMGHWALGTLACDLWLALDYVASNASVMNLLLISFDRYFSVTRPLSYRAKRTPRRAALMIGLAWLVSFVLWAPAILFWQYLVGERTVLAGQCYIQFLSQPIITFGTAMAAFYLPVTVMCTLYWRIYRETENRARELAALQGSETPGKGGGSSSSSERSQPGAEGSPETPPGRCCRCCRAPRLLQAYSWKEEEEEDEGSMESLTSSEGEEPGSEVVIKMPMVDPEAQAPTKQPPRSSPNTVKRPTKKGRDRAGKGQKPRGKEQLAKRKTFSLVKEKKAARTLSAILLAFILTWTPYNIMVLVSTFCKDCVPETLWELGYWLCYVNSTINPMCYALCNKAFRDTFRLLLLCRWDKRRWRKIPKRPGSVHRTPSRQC
Nature of the assay: mAChR M1 cell-based functional assay (calcium mobilization, PAM mode). The note with it: calcium flux in CHO-K1 cells expressing mAChR M1; increase in the EC20 acetylcholine response; >10 μM estimated where no plateau but >20% increase in ACh response. An excerpt: Chinese hamster ovary (CHO-K1) cells stably expressing rat (r)M1 were purchased from the American Type Culture Collection and cultured according to their indicated protocol. CHO cells stably expressing human (h)M2, hM3, and hM5 were described previously (Levey, A. I., et al., J Neurosci. 1991, 11, 3218-3226.); hM1 and hM4 cDNAs were purchased from Missouri S&T cDNA Resource; rM4 cDNA was provided by T. I. Bonner (National Institutes of Health, Bethesda, Md.). rM2 and rM3 were cloned from a rat brain cDNA library and sequence verified. hM1, rM2, rM3, hM4, and rM4 cDNAs were used to stably transfect CHO-K1 cells purchased from the American Type Culture Collection using Lipofectamine® 2000 (Thermo Fisher Scientific Inc.). To make stable rM2, hM2, hM4, and rM4 cell lines for use in calcium mobilization assays, these cells also were stably transfected with a chimeric G-protein (Gqi5) (provided by B. R. Conklin, University of California, San Francisco) using Lipofectamine® 2000. rM1, hM1, rM3, hM3, rM5, and hM5 cells were grown in Ham's F-12 medium containing 10% heat-inactivated fetal bovine serum (FBS), 20 mM HEPES, and 50 μg/mL G418 sulfate. rM2-Gqi5, hM2-Gqi5, and hM4-Gqi5 cells were grown in the same medium also containing 500 μg/mL hygromycin B. Stable rM4-Gqi5 cells were grown in DMEM containing 10% heat-inactivated FBS, 20 mM HEPES, 400 μg/mL G418 sulfate, and 500 μg/mL hygromycin B.
For high throughput measurement of agonist-evoked increases in intracellular calcium, CHO-K1 cells stably expressing muscarinic receptors were plated in growth medium lacking G418 and hygromycin B at 15,000 cells/20 μL/well in Greiner 384-well black-walled, tissue culture (TC)-treated, clear-bottom plates (VWR). Cells were incubated overnight at 37° C. and 5% CO2. The next day, cells were washed using an ELX 405 (BioTek) with four washes (80 μL) of assay buffer then aspirated to 20 μL. Next, 20 μL of 16 μM Fluo-4/acetoxymethyl ester (Invitrogen, Carlsbad, Calif.) prepared as a 2.3 mM stock in DMSO and mixed in a 1:1 ratio with 10% (w/v) Pluronic F-127 and diluted in assay buffer was added to the wells and the cell plates were incubated for 50 min at 37° C. and 5% CO2. Dye was removed by washing with the ELX 405 (four 80 μL washes of assay buffer) then aspirated to 20 μL. Compound master plates were formatted in an 11 point CRC format (1:3 dilutions) in 100% DMSO with a starting concentration of 10 mM using the BRAVO liquid handler (Agilent). Test compound CRCs were then transferred to daughter plates (240 nL) using the Echo acoustic plate reformatter (Labcyte, Sunnyvale, Calif.) and then diluted into assay buffer (40 μL) to a 2× stock using a Thermo Fisher Combi (Thermo Fisher Scientific, Waltham, Mass.).
Calcium flux was measured using the Functional Drug Screening System (FDSS) 6000 (Hamamatsu Corporation, Tokyo, Japan) as an increase in the fluorescent static ratio. Compounds were applied to cells (20 μL, 2X) using the automated system of the FDSS 6000 at 4 s into the 300 s protocol and the data were collected at 1 Hz. At 144 s into the 300 s protocol, 10 μL of an EC20 concentration of the muscarinic receptor agonist acetylcholine was added (5X), followed by the addition of […] concentration of acetylcholine at the 230 s time point (5X). Agonist activity was analyzed as a concentration—dependent increase in calcium mobilization upon compound addition. Positive allosteric modulator activity was analyzed as a concentration-dependent increase in the EC20 acetylcholine response. Antagonist activity was analyzed as a concentration-dependent decrease in the EC80 acetylcholine response. Concentration-response curves were generated using a four -parameter logistical equation in XLFit curve fitting software (IDBS, Bridgewater, N.J.) for Excel (Microsoft, Redmond, Wash.) or Prism (GraphPad Software, Inc., San Diego, Calif.).
The calcium mobilization assay was also used to determine “efficacy”. […]
Consider `Cn1cc2c(-c3cc(F)c(Cn4cnc5cnccc5c4=O)c(F)c3)cccc2n1` [Compound B7, 3-(2,6-Difluoro-4-(2-Methyl-2H-Indazol-4-yl)Benzyl)Pyrido[3,4-D]Pyrimidin-4(3H)-one], for which the EC50 is 0.6 µM.
For `O=c1c2cccnc2ncn1Cc1ccc(-n2cccn2)cc1` [Compound B5] the value was over 10 µM; for `Cn1cc(-c2ccc(Cn3cnc4cnccc4c3=O)cc2)cn1` [Compound B9], 4.9 µM.
As to `Cn1cc2c(-c3cc(F)c(Cn4cnc5cccnc5c4=O)c(F)c3)cccc2n1` [Compound B12], the EC50 was 3.6 µM.
`O=c1c2ccccc2ncn1Cc1ccc(-n2cccn2)cc1` [Compound B2]: the EC50 is over 10 µM.
The same measure for `Cn1cc(-c2ccc(Cn3cnc4cccnc4c3=O)cc2)cn1` [Compound B11]: over 10 µM; for `O=c1c2ccncc2ncn1Cc1ccc(-n2cccn2)cc1` [Compound B8]: over 10 µM.
For `Cn1cc(-c2ccc(Cn3cnc4ccccc4c3=O)cc2)cn1` [Compound B3] the value was over 10 µM; for `O=c1c2ncccc2ncn1Cc1ccc(-n2cccn2)cc1` [Compound B10], over 10 µM.
For `Cn1cc(-c2ccc(Cn3cnc4ncccc4c3=O)cc2)cn1` [Compound B6] the value was over 10 µM.

The EC50 is the concentration needed to bring the measured effect to its halfway point.
